Source: patent US20250332151A1, “METHODS OF TREATMENT FOR CYSTIC FIBROSIS” (Vertex Pharmaceuticals Incorporated, priority 2022, published 2025)
pEC50: −log10 of the molar value.

Tests used:
[1] = molecular target: T1, CFTR in F508del/MF-HBE cells (Homo sapiens, UniProt P13569, DEL508-508); test: Ussing chamber assay of CFTR-mediated short-circuit currents (potentiator activity); assay type: cell-based; conditions: 18-24 hours at 37° C. with 10 μM Compound VII, 20% human serum, CFTR-mediated ISC
T1 construct: human bronchial epithelial (HBE) cells derived from CF subjects; endogenous in cells; host or cells: primary human bronchial epithelial cells from CF subjects (F508del/MF-HBE)
Experimental: Ussing chamber experiments were performed using human bronchial epithelial (HBE) cells derived from CF subjects heterozygous for F508del and a minimal function CFTR mutation (F508del/MF-HBE) and cultured as previously described (Neuberger T, Burton B, Clark H, Van Goor F Methods Mol Biol 2011:741:39-54). After four days the apical media was removed, and the cells were grown at an air liquid interface for >14 days prior to use.
To isolate the CFTR-mediated short-circuit (ISC) current, F508del/MF-HBE grown on Costar® Snapwell™ cell culture inserts were mounted in an Ussing chamber and the transepithelial ISC was measured under voltage-clamp recording conditions (Vhold=0 mV) at 37° C. The basolateral solution contained (in mM) 145 NaCl, 0.83 K2HPO4, 3.3 KH2PO4, 1.2 MgCl2, 1.2 CaCl2), 10 Glucose, 10 HEPES (pH adjusted to 7.4 with NaOH) and the apical solution contained (in mM) 145 NaGluconate, 1.2 MgCl2, 1.2 CaCl2), 10 glucose, 10 HEPES (pH adjusted to 7.4 with NaOH) and 30 μM amiloride to block the epithelial sodium channel. […] The CFTR-mediated ISC (uA/cm2) for each condition was determined from the peak forskolin response to the steady-state current following inhibition.
The activity of the CFTR potentiator compounds on the CFTR-mediated ISC was determined in Ussing chamber studies as described above. […]

[2] = First-in-human (FIH) clinical study of safety, tolerability and PK in healthy subjects; assay type: in vivo; conditions: single doses 3 mg to 1500 mg (Part A), total daily doses 10 mg to 300 mg for ten days (Part B), Part C, suspension, all cohorts
Experimental: In a first-in-human (FIH) clinical study of Compound I, the safety, tolerability, and pharmacokinetics (PK) of Compound I in healthy subjects was evaluated. Assessments of the relative bioavailability (BA) of Suspension 2 of Compound I compared to Suspension 1 of Compound I, food effect, and drug drug interactions (DDIs) between Compound I and itraconazole and midazolam were conducted.
This first-in-human (FIH) study of Compound I included three parts (Parts A, B, and C).
Approximately 154 healthy adult subjects were planned to be enrolled in planned cohorts. Approximately 76 subjects were planned to be enrolled in Part A (excluding optional Part A Cohorts), approximately 48 subjects in Part B (excluding optional Part B Cohorts), and approximately 30 subjects in Part C. There was no pre-specified ratio of males to females, but reasonable effort was made to enroll females of non-childbearing potential in all dosing cohorts.
Six dose escalation cohorts were planned for Part A, and five dose escalation cohorts were planned for Part B. Additional cohorts (A7 and A8) in Part A were enrolled based on data from previous cohorts. […]
Food effect was evaluated in an open label, single sequence Cohort A9 to evaluate the effect of food on the PK of Compound I based on emerging PK data during dose escalation. […]

T1 sequence (P13569 with tags, fused parts or gaps DEL508-508): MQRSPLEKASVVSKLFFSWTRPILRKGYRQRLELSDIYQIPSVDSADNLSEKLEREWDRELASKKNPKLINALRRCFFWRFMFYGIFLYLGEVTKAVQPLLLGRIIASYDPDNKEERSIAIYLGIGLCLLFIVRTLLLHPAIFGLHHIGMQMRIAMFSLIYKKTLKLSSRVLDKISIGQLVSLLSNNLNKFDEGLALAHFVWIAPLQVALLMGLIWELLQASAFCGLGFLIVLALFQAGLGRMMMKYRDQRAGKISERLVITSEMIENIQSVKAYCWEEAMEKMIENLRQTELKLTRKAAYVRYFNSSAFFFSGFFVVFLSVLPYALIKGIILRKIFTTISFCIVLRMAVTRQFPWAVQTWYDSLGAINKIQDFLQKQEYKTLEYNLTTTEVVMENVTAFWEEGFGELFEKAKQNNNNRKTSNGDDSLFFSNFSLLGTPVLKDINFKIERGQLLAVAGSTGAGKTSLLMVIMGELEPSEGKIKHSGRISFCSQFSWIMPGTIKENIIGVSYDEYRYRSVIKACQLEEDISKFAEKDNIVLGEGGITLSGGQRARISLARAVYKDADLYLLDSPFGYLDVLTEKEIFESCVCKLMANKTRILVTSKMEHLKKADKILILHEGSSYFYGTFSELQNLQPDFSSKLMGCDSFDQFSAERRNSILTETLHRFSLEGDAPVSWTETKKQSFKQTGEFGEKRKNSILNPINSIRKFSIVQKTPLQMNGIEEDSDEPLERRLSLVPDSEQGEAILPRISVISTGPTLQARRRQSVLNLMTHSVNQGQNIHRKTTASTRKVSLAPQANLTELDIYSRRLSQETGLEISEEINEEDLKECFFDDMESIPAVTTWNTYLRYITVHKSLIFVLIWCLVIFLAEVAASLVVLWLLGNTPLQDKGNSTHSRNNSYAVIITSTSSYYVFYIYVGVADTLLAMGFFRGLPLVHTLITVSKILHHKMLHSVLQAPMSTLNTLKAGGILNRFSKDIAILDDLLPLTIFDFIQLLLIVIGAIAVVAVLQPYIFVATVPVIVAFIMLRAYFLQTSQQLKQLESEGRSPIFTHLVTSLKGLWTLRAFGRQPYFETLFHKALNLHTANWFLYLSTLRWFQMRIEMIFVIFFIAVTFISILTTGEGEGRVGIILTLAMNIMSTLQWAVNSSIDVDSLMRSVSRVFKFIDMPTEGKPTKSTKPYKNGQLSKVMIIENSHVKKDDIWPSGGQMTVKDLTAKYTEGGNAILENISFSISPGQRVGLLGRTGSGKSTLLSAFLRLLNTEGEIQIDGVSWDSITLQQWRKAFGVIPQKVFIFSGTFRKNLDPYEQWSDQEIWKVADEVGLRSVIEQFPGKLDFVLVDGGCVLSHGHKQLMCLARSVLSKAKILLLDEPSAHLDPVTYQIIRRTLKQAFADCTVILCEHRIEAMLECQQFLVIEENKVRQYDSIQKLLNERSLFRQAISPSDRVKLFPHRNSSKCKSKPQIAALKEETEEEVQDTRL

Structure (SMILES): CC1(C)CCCCC[C@](O)(C(F)(F)F)C2=NN=C(O2)c2nc(c(C(F)(F)F)cc2N)N1 [Compound I, (6R)-17-amino-12,12-dimethyl-6,15-bis(trifluoromethyl)-19-oxa-3,4,13,18-tetrazatricyclo[12.3.1.12,5]nonadeca-1 (18),2,4,14,16-pentaen-6-ol]
- pEC50 [1]: > 6.30
- safety and tolerability [2]: generally safe and well-tolerated
